Measured values from patent US6159979A, “Bicyclic aryl or a bicyclic heterocyclic ring containing compounds having a combined 5HT1A, 5HT1B and 5HT1D receptor antagonistic activity” (SmithKline Beecham p.l.c., priority 1997, dated 2000).

Legend:
5-HT1B receptors = target: T1, 5-HT1B receptors (Homo sapiens, UniProt P28222); assay: 5-HT1B receptor binding ([3H]-5-HT, CHO cell homogenate); conditions: CHO cells expressing 5-HT1B receptors; [3H]-5-HT (4nM); pH 7.7, 37° C., 45 minutes; read-out: pKi values at 5-HT1B (converted)
T1 construct: expressed in transfected cells; host or cells: CHO
T1 sequence (P28222 whole entry): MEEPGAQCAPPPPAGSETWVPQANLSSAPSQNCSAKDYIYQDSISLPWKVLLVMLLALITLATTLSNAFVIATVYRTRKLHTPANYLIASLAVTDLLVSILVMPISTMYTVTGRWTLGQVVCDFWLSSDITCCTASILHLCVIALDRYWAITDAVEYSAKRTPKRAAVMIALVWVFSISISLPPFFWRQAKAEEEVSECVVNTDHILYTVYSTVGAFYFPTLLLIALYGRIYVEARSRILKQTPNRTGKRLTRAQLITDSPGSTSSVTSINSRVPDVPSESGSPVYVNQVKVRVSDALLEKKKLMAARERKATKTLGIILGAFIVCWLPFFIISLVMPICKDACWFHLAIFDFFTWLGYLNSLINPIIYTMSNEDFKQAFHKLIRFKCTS
Method: (§1) 5-HT1A, 5-HT1B and 5-HT1D Receptor Binding
(§2) HEK 293 cells expressing 5-HT1A receptors (4×10^7 /ml) were homogenised in Tris buffer and stored in 1 ml aliquots. CHO cells expressing 5-HT1B receptors (4×10^7 cells/ml) were homogenised in Tris buffer and stored in 1.5 ml aliquots. CHO cells expressing 5-HT1D receptors (0.563×10^8 /ml) were homogenised in Tris buffer and stored in 1 ml aliquots.
(§3) 0.4 ml of a cell suspension was incubated with [^3 H]-5-HT (4nM) for 5-HT1B/1D receptors and [^3 H]-8-OH DPAT (1nM) for 5-HT1A receptors in Tris Mg HCl buffer (pH 7.7) and test drug, at 37° C. for 45 minutes. Each test drug was tested at 10 concentrations (0.01 mM to 0.3 nM final concentration), with non-specific binding defined using 0.01 mM 5-HT. The total assay volume was 0.5 ml. Incubation was stopped by rapid filtration using a Packard Filtermate (filters pre-soaked in 0.3% polyethylenimine) and radioactivity measured by Topcount scintillation counting. pKi values were calculated from the IC50 generated by an iterative least squares curve fitting programme.

5-HT1A receptors = target: T2, 5-HT1A receptors (Homo sapiens, UniProt P08908); assay: 5-HT1A receptor binding ([3H]-8-OH DPAT, HEK 293 cell homogenate); conditions: HEK 293 cells expressing 5-HT1A receptors; [3H]-8-OH DPAT (1nM); pH 7.7, 37° C., 45 minutes; read-out: pKi values at 5-HT1A (converted)
T2 construct: expressed in transfected cells; host or cells: HEK 293
T2 sequence (P08908 1-422): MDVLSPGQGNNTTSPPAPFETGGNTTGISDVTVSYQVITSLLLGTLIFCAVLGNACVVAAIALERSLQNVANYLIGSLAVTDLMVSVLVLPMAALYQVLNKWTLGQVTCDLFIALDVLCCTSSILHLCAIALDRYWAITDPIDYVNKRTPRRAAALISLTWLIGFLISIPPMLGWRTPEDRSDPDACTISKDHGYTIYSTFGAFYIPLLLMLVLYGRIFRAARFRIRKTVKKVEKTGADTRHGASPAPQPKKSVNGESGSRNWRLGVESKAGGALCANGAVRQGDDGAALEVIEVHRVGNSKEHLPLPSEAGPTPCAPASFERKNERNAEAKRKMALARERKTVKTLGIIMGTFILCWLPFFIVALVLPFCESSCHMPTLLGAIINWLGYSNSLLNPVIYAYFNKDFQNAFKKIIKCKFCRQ
Method: as §1, §2, §3

5-HT1D receptors = target: T3, 5-HT1D receptors (Homo sapiens, UniProt P28221); assay: 5-HT1D receptor binding ([3H]-5-HT, CHO cell homogenate); conditions: CHO cells expressing 5-HT1D receptors; [3H]-5-HT (4nM); pH 7.7, 37° C., 45 minutes; read-out: pKi values at 5-HT1D (converted)
T3 construct: expressed in transfected cells; host or cells: CHO
T3 sequence (P28221 whole entry): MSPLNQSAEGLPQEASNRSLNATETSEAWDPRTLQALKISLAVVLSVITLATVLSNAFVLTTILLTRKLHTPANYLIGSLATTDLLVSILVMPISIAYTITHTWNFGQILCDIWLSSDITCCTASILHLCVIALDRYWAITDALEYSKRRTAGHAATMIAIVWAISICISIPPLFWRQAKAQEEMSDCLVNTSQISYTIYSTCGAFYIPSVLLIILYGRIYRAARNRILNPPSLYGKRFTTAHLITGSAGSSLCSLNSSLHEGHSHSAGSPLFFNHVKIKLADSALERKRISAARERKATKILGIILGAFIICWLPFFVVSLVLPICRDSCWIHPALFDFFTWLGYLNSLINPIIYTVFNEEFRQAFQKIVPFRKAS
Method: as §1, §2, §3

Row | Compound | Ki (5-HT1B receptors) [nM] | Ki (5-HT1A receptors) [nM] | Ki (5-HT1D receptors) [nM]
1 | COc1ccc(NC(=O)Cc2ccc(-c3cccnc3)c3ccccc23)cc1N1CCN(C)CC1 [Example 28, N-[4-Methoxy-3-(4-methylpiperazin-1-yl)phenyl]-4-(pyridin-3-yl)naphth-1-ylacetamide] | < 10 | < 10 | < 10
2 | CN1CCN(c2cc(NC(=O)Nc3ccc(-c4ccncc4)c4ccccc34)ccc2Cl)CC1 [Example 11, N-[4-Chloro-3-(4-methylpiperazin-1-yl)phenyl]-N'-[4-(pyridin-4-yl)naphth-1-yl]urea] | < 10 | < 10 | < 10
3 | COc1ccc(NC(=O)Cc2ccc(-c3ccncc3)c3ccccc23)cc1N1CCN(C)CC1 [Example 10, N-[4-Methoxy-3-(4-methylpiperazin-1-yl)phenyl]-4-(pyridin-4-yl)naphth-1-ylacetamide] | < 10 | < 10 | < 10

The remaining lines, values ahead:

Row | Ki (5-HT1B receptors) [nM] | Ki (5-HT1A receptors) [nM] | Ki (5-HT1D receptors) [nM] | Compound
4 | < 10 | < 10 | < 10 | COc1ccc(NC(=O)Nc2cccc3c(-c4cccc(C(C)=O)c4)cccc23)cc1N1CCN(C)CC1 [Example 40, N-[5-(3-Acetylphenyl)naphth-1-yl]-N'-[4-methoxy-3-(4-methylpiperazin-1-yl)phenyl]urea]
5 | < 10 | < 10 | < 10 | CN1CCN(c2cc(NC(=O)Cc3ccc(-c4ccncc4)c4ccccc34)ccc2Br)CC1 [Example 38, N-[4-Bromo-3-(4-methylpiperazin-1-yl)phenyl]-4-(pyridin-4-yl)naphth-1-ylacetamide]
6 | < 10 | < 10 | < 10 | COc1ccc(NC(=O)Nc2cccc3c(-c4ccccc4)cccc23)cc1N1CCN(C)CC1 [Example 33, N-[4-Methoxy-3-(4-methylpiperazin-1-yl)phenyl]-N'-[5-phenylnaphth-1-yl]urea]
